Results taken from PMC4785745, “Genome-wide analysis identifies gain and loss/change of function within the small multigenic insecticidal Albumin 1 family of Medicago truncatula” (BMC Plant Biology, 2016).
Bridge positions count the residues as written; N and C are the ends. Ends that are not written are not given here. Peptide text beside a SMILES is read from it.

Key:
[1] = system: Sitophilus; type: in vivo; conditions: standard Sitophilus mortality assay [17]; data not shown
[2] = system: Sf9 cells; type: cell-based, Spodoptera frugiperda; conditions: for LC50: cultured Sf9 cells, 15 000 cells/well, 24 h exposure, 27 °C, CellTiter-Blue, according to Rahioui et al. [32], '-' = no toxicity in the range assayed
Protocol: Sf9 cells lines were grown at 27 °C in Lonza’s culture medium, supplemented with 5 % fetal bovine serum (FBS) and 0.1 % gentamicin. Sf9 cells were seeded, in 96-well plates, 24 h prior to the experiments (15 000 cells/well) and were exposed to increasing concentrations of synthetic peptide. After this 24 h period, cell viability was determined using the CellTiter-Blue Viability Assay (Promega), according to the manufacturer’s instructions. After addition of the dye, the cells were incubated at 27 °C for 4 h. The absorbance, at 570 and 600 nm, was then measured using a microplate reader (MR 7000, Dynatech Laboratories Inc., USA).

[3] = system: PA1b binding site; assay: Ligand binding to the PA1b-binding site using 125I-PA1b; conditions: for binding to the PA1b-binding site (in words): 125I-PA1b ligand binding; for Ki: affinity to the PA1b binding site, ligand binding using 125I-PA1b, according to [12], '-' = no binding in the range assayed
Protocol: The affinity of synthetic peptides for the PA1b-binding site was determined by ligand binding using ^125I-toxin [12].

[4] = system: Sf9 cell ramp membrane current; assay: Whole-cell patch-clamp: blockage of Sf9 cell ramp membrane current; type: cell-based, Spodoptera frugiperda; conditions: Sf9 cells; for EC50: whole-cell patch clamp, voltage ramps 1.5 s from −100 to 90 mV, measured at +50 mV, Hill fit with 100 % blockage as fixed maximum, mean ± S.E., n = 9 (AG41), n = 8 (PA1b), SEM, read-out: EC50, inhibition of ramp membrane current
Protocol: We further investigated the AG41’s biological activity by performing an electrophysiological experiment on cultured Sf9 cells to check whether its cell-membrane ion transport alteration differed from that of PA1b, the model pea peptide. […] At 35 nM, AG41 decreased by approximately 35 % the ramp current amplitude measured at +50 mV (from 68 pA to 44 pA), while a similar concentration of 37.5 nM PA1b had no effect (trace from AG41 even differed from control at 3.5 nM).
Current recordings were made at room temperature, under voltage clamp using the whole-cell configuration of the patch-clamp technique. Command voltage and data acquisition were performed with pClamp software (Axon Instruments, Foster city, CA, USA). The holding potential was −80 mV. Membrane currents were evoked, every 10 s, by voltage ramps of 1.5 s in duration applied from −100 to 90 mV, filtered at 300 Hz and sampled at 1 kHz with an analogue-to-digital converter (Labmaster TM 40, Scientific Solutions Inc., Solon OH, USA). The external solution contained (in mM): 135 NaCl, 4 KCl, 2 MgCl2, 10 CaCl2 and 10 Mes, adjusted to pH 6.4 with NaOH. The internal solution contained (in mM): 140 K-aspartate, 1 MgCl2, 3 K2-ATP, 5 EGTA and 5 Hepes, adjusted to pH 7.2 with KOH. Salts were purchased from Sigma-Aldrich and peptides were prepared as 60 % (v/v) ethanol stock solution as previously described.
Biological results are expressed as the mean ± S.E.M., n indicating the number of Sf9 cells studied (electrophysiology). Statistical comparisons were made using a Mann–Whitney U or Wilcoxon tests at the 95 % confidence level.

Row | Compound | toxicity in Sitophilus mortality assay (in words) [1] | toxicity relative to the original pea albumin 1b ([2]; compared with PA1b, Table 1) | LC50 [2] | binding to the PA1b-binding site (in words) [3] | Ki [3] [nM] | decrease of ramp current amplitude measured at +50 mV ([4]; 35 nM peptide) | ramp current amplitude measured at +50 mV ([4]; 35 nM peptide (control 68 pA)) [pA] | EC50 [4] [nM] | effect on ramp membrane current (in words) ([4]; 37.5 nM peptide)
1 | ASCPNVGAVCSPFETKPCGNVKDCRCLPWGLFFGTCINPTG (disulfide 3-24, 10-26, 18-36 (inferred)) [AG41] | highly toxic | almost ten times superior | 5.44 ± 1.7 nM | revealed binding properties | 1.3 ± 0.6 | approximately 35% | 44 | 14.6 ± 0.4 | –
2 | CC[C@H](C)[C@@H]1NC(=O)[C@H](Cc2ccccc2)NC(=O)[C@@H]2CSSC[C@@H]3NC(=O)[C@H](C)NC(=O)[C@H](CCC(=O)O)NC(=O)CNC(=O)[C@@H](NC(=O)[C@H](CCCCN)NC(=O)[C@H](C)N)CSSC[C@H](NC(=O)CNC(=O)[C@H](CC(=O)O)NC(=O)CNC(=O)[C@H](C)NC(=O)[C@H](CC(N)=O)NC(=O)[C@H](CSSC[C@@H](C(=O)N[C@@H](C)C(=O)N[C@@H](CCC(N)=O)C(=O)N[C@@H](CC(C)C)C(=O)N[C@@H](CO)C(=O)N[C@H](C(=O)O)[C@@H](C)O)NC(=O)[C@H](Cc4ccccc4)NC(=O)CNC(=O)[C@@H]4CCCN4C(=O)[C@H](CC(C)C)NC(=O)[C@H]([C@@H](C)O)NC(=O)[C@H](CC(C)C)NC(=O)[C@H](Cc4ccc(O)cc4)NC(=O)[C@H](C)NC(=O)[C@H](CC(=O)O)NC(=O)[C@H]([C@@H](C)O)NC1=O)NC(=O)[C@H](Cc1ccccc1)NC(=O)[C@H](CC(N)=O)NC(=O)[C@H](Cc1ccccc1)NC(=O)[C@H](CCC(N)=O)NC(=O)[C@H]([C@@H](C)O)NC(=O)[C@H](CC(=O)O)NC3=O)C(=O)N[C@@H](CCCNC(=N)N)C(=O)N2 [AS40] (H-AKCGEACDTQFNFCNAGDGCRCFITDAYLTLPGFCAQLST-OH; disulfide 3-20, 7-22, 14-35 (inferred); N-terminus and C-terminus assumed) | – | – | 47 ± 2.2 nM | revealed binding properties | 10.3 ± 2 | – | – | – | –
3 | GQCARVGMRCSRALPNPCGDIVTCRCVHLHLVGSTCIDYTGDGL (disulfide 3-24, 10-26, 18-36) [GL44] | – | – | - ((−) scores a negative result (no toxicity nor binding in the toxin range assayed)) | did not present binding | > 694 | – | – | – | –
4 | EFCSSVGSFCSPFNTNPCGYLGNCRCVPYYLYGGTCENPFG (disulfide 3-24, 10-26, 18-36 (inferred)) [EG41] | – | – | 75 ± 3.1 nM | revealed binding properties | 72.8 ± 2.7 | – | – | – | –
5 | CC[C@H](C)[C@@H]1NC(=O)CNC(=O)[C@H](CO)NC(=O)[C@@H](NC(=O)[C@H](CC(=O)O)NC(=O)[C@H](C)N)CSSC[C@@H]2NC(=O)[C@H](CC(=O)O)NC(=O)[C@H](CO)NC(=O)[C@H](CO)NC(=O)[C@H](CCCNC(=N)N)NC(=O)[C@@H]3CSSC[C@@H](C(=O)N[C@H](C(=O)N[C@@H](CC(N)=O)C(=O)N4CCC[C@H]4C(=O)N[C@H](C(=O)N[C@@H](CO)C(=O)O)[C@@H](C)CC)[C@@H](C)CC)NC(=O)[C@H](Cc4ccccc4)NC(=O)CNC(=O)CNC(=O)[C@H]([C@@H](C)CC)NC(=O)[C@H](CC(C)C)NC(=O)[C@H](C)NC(=O)[C@H]([C@@H](C)CC)NC(=O)[C@@H]4CCCN4C(=O)[C@H]([C@@H](C)CC)NC(=O)[C@H](CSSC[C@H](NC1=O)C(=O)N[C@@H](CO)C(=O)N1CCC[C@H]1C(=O)N[C@@H](Cc1ccccc1)C(=O)N[C@@H](CCC(=O)O)C(=O)N[C@@H](CCSC)C(=O)N1CCC[C@H]1C(=O)N1CCC[C@H]1C(=O)N3)NC(=O)[C@H](CCCNC(=N)N)NC2=O [AS37] (H-ADCSGICSPFEMPPCRSSDCRCIPIALIGGFCINPIS-OH; disulfide 3-20, 7-22, 15-32 (inferred); N-terminus and C-terminus assumed) | toxic | – | 107 ± 3.2 nM | revealed binding properties | 15 ± 2 | – | – | – | –
6 | DEC-W-G-PCSVLQTPP-CPLSK CYCIPLFLVVGY---CSHASS (bicyclic or more) [DS37, synthetic folded Medicago truncatula A1b peptide, cluster 1, non-canonical CYC motif] | not toxic | – | - ((−) scores a negative result (no toxicity nor binding in the toxin range assayed)) | did not present binding | – | – | – | – | –
7 | CC[C@H](C)[C@@H]1NC(=O)[C@H](C(C)C)NC(=O)[C@H](CC(C)C)NC(=O)CNC(=O)[C@H](C(C)C)NC(=O)[C@@H]2CCCN2C(=O)[C@H]([C@@H](C)CC)NC(=O)[C@@H]2CSSC[C@@H]3NC(=O)[C@H](C(C)C)NC(=O)CNC(=O)[C@H](CC(N)=O)NC(=O)[C@@H](NC(=O)[C@H](CO)NC(=O)[C@H](C)N)CSSC[C@H](NC(=O)[C@H](C)NC(=O)[C@H](CO)NC(=O)[C@H]([C@@H](C)O)NC(=O)CNC(=O)[C@H](CSSC[C@@H](C(=O)N[C@@H](CCCNC(=N)N)C(=O)N[C@@H](CC(N)=O)C(=O)N4CCC[C@H]4C(=O)N[C@@H](CO)C(=O)NCC(=O)O)NC(=O)[C@H](Cc4ccc(O)cc4)NC(=O)CNC1=O)NC(=O)[C@@H]1CCCN1C(=O)[C@@H]1CCCN1C(=O)[C@H](CCSC)NC(=O)[C@H](CCC(=O)O)NC(=O)[C@H](Cc1ccccc1)NC(=O)[C@@H]1CCCN1C(=O)[C@H](CO)NC3=O)C(=O)N[C@@H](CCCNC(=N)N)C(=O)N2 [PA1b, reference compound] (H-ASCNGVCSPFEMPPCGTSACRCIPVGLVIGYCRNPSG-OH; disulfide 3-20, 7-22, 15-32; N-terminus and C-terminus assumed) | – | – | 79.8 ± 3.6 nM | – | 17 ± 1.1 | – | – | 415 ± 75.6 | no effect
